Legend:
Format in all cases: in vivo
[1] = test system: cervical sympathetic nerve; test: Sympathetic blockade in anaesthetized cats (cervical sympathetic nerve stimulation, nictitating membrane contraction); conditions: i.v., ED₂₅ for inhibition of sympathetic nerve stimulation relative to neuromuscular ED₉₅
Experimental: (§1) Mongrel male cats (Southeastern Laboratories Animal Farm), weighing 2.2-4.25kg, were anaesthetized with a mixture of pentobarbital sodium, 7mg/kg i.p., and alpha-chloralose, 80 mg/kg i.p. Adequate levels of anaesthesia were maintained with supplemental doses of alpha-chloralose administered intravenously as needed. The trachea was cannulated and the animals were ventilated with 20 ml/kg of room air via a Harvard Apparatus respiration pump adjusted to deliver 20 strokes/minute. Arterial blood pressure was measured via a cannula in the right femoral artery connected to a Statham P23 transducer. Heart rate was determined from the ECG using a Grass tachograph. […] Isometric […] of the nictitating membrane were recorded during a resting tension of 5 grams with a Grass FT.03 force displacement transducer and a Grass polygraph. […] Twitch tension in the anterior tibialis was recorded during a resting tension of 50 grams. […] Esophageal temperature was monitored with a Yellow Springs thermistor probe and core temperature maintained between 37° and 38°C with radiant heat. […] At the end of the experiments, cats were euthanatized with intravenously administered saturated KCl or pentobarbital sodium. b) Results The ED₉₅ value for neuromuscular blocking potency was calculated from dose-response curves. […]

anterior tibialis = test: Neuromuscular blocking potency in anaesthetized cats (peroneal nerve stimulation, anterior tibialis twitch tension); conditions: intravenous (femoral vein), calculated from dose-response curves, mg/kg as the free base, based on the weight of the atracurium cation
Experimental: as §1

vagus = test: Parasympathetic blockade in anaesthetized cats (inhibition of the response to vagus stimulation); conditions: i.v., ED₅₀ for inhibition of parasympathetic (vagus) nerve stimulation relative to neuromuscular ED₉₅
Experimental: as §1

Compound | RATIO 25% SYMPATHETIC INHIBITION vs. ED₉₅ [1] | CALC. * ED₉₅ (anterior tibialis) | RATIO 50% VAGUS INHIBITION vs. ED₉₅ (vagus)
COc1ccc(C[C@@H]2c3cc(OC)c(OC)cc3CC[N+]2(C)CCC(=O)OCCCCCOC(=O)CC[N+]2(C)CCc3cc(OC)c(OC)cc3[C@H]2Cc2ccc(OC)c(OC)c2)cc1OC.CS(=O)(=O)[O-].CS(=O)(=O)[O-] (relative stereo) [Compound A, 1R-cis,1'R-cis-2,2'-(3,11-Dioxo-4,10-dioxatridecamethylene)-bis-(1,2,3,4-tetrahydro-6,7-dimethoxy-2-methyl-1-veratrylisoquinolinium)methanesulphonate] | 60 | 0.062 ± 0.008 mg/kg | 27
COc1ccc(CC2c3cc(OC)c(OC)cc3CC[N+]2(C)CCC(=O)OCCCCCOC(=O)CC[N+]2(C)CCc3cc(OC)c(OC)cc3C2Cc2ccc(OC)c(OC)c2)cc1OC (stereo not drawn) [Atracurium besylate, 2,2'-(3,11-dioxo-4,10-dioxatridecylene)-bis-(1,2,3,4-tetrahydro-6,7-dimethoxy-2-methyl-1-veratrylisoquinolinium dibesylate] | 34 | 0.092 ± 0.010 mg/kg | 17

From EP0539470B1, “NEUROMUSCULAR BLOCKING AGENTS” (THE WELLCOME FOUNDATION LIMITED, priority 1990, dated 1992)
